Source: patent US8163788B2, “Low-molecular inhibitors of cytohesin-family guanine nucleotide exchange factors” (Rheinische Friedrich-Wilhelms Universitat Bonn, priority 2004, dated 2012)

Experiments:
sec7-domain of Gea2 = biological target: T1, sec7-domain of Gea2 (Saccharomyces cerevisiae, UniProt P39993); experiment: GDP/GTP exchange on NΔ17-ARF1 catalysed by sec7-domain (tryptophan fluorescence); type: biochemical
T1 construct: 1 μM of the purified sec7-domain of cytohesin-1, cytohesin-2 and Gea2; made in house; host or cells: E. coli BL21DE3
Procedure: (§1) The IC50 value for the inhibition of the exchange activity of the sec7-domains of various guanine nucleotide exchange factors of the compounds (9), (10), (11), (12), (14) and (19) was determined.
(§2) For this purpose, the sec7-domains of cytohesin-1, cytohesin-2 and Gea2 as well as the NΔ 17-ARF 1, a mutant of the ARF protein, recombinantly expressed in E. coli BL21DE3, were purified by means of a standard method and used as catalysts for the exchange from GDP to GTP in GTPases of the family of the ADP ribosylation factors. The exchange from GDP to GTP induces a conformation change of the ribosylation factor, as a result of which the fluorescence of a tryptophan radical of the protein is increased.
(§3) In 50 mM of HEPES, pH 7.4, 120 mM of KCl, 1 mM of MgCl2, 45 μM of GTP S, the compounds (9), (10), (11), (12), (14) and (19), each in concentrations of 1 μM to 30 μM, were added to 1 μM NΔ 17-ARF1 and, in each case, 1 μM of the purified sec7-domain of cytohesin-1, cytohesin-2 and Gea2, and the fluorescence was measured in a Varioskan, Thermo LifeSciences Inc., at the following wavelengths: excitation: 275 nm, emission 340 nm.
(§4) The IC50 value can be determined by plotting the initial rise of the fluorescence signal against the added concentrations of the compounds. The IC50 value corresponds to the concentration of the compounds at which the activity of the protein is reduced to half. […] Brefeldin A, a specific inhibitor of the […] Gea2 served as the control.

[1] = biological target: T2, sec7-domain of cytohesin-1 (Homo sapiens, UniProt Q15438); experiment: as above; type: biochemical; conditions: 1 μM NΔ17-ARF1, 1 μM sec7-domain, compounds 1 μM to 30 μM
T2 construct: central sec7-domain, corresponding to the amino acids 62-244 in cytohesin-1; made in house; host or cells: E. coli BL21DE3
T2 sequence (Q15438 62-244): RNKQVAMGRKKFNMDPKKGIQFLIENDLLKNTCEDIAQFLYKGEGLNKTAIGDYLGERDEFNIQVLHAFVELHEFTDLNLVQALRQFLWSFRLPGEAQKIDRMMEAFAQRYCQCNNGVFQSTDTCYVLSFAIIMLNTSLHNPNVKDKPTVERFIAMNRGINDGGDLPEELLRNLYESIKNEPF
Procedure: as §1, §2, §3, §4

[2] = tested on: sec7-domain of cytohesin-1; experiment: as above; type: biochemical; conditions: conclusion in words from Table 1
Procedure: as §1, §2, §3, §4

[3] = biological target: T3, sec7-domain of cytohesin-2 (Homo sapiens, UniProt Q99418); experiment: as above; type: biochemical; conditions: 1 μM NΔ17-ARF1, 1 μM sec7-domain, compounds 1 μM to 30 μM
T3 construct: 1 μM of the purified sec7-domain of cytohesin-1, cytohesin-2 and Gea2; made in house; host or cells: E. coli BL21DE3
T3 sequence (Q99418 72-201 limits assumed): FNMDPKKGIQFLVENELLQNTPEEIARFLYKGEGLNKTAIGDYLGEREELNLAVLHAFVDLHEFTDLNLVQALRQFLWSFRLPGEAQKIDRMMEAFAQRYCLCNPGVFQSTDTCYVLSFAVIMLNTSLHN
Procedure: as §1, §2, §3, §4

cytohesin-2 = experiment: luciferase assay in HeLa-cells (serum response element activation, MAPK path via cytohesin-2); type: cell-based; conditions: compounds 1 μM to 50 μM, read-out: IC50 (luciferase signal)
Procedure: The IC50 value was determined in comparison to the LC50 value in a luciferase assay in HeLa-cells, corresponding to the test conditions described in Theis, M. G. et al., Proc Natl Acad Sci USA, 101, 11221-26 (2004). The stimulation of receptor tyrosine kinases by means of growth factors contained in fetal calf serum activates the MAPK path via cytohesin-2 and results in an activation of the serum response element. This activation manifests itself in the quantity of luciferase produced in the cells.
Compounds (9), (10), (11), (12), (14) and (19) were each added in concentrations of 1 μM to 50 μM to 6.5×10^4 HeLa-cells.
The IC50 value was determined from the plotting of the concentration of the compound against the intensity of the luciferase signal.

[4] = MTT assay (LC50) in HeLa-cells; type: cell-based; conditions: human, after 24 hours
Procedure: The LC50 values were determined by an MTT assay according to a standard method.
The LC50 value describes the lethal concentration at which […] died within 24 hours after a one-time administration.

[5] = tested on: human peripheral blood cells (PBL); experiment: adhesion of human peripheral blood cells (PBL) to ICAM-1 after stimulation with OKT3 or PMA; type: cell-based; conditions: FIG. 1
Source text: Human peripheral blood cells (PBL) were stimulated with agonists that activate a beta-2 integrin-dependent adhesion. In these primary human lymphocytes, the beta-2 integrin-dependent adhesion can be activated by cytohesins at the specific ligands ICAM-1.
The agonists employed were the monoclonal antibody OKT3 (hybridome of ATCC, mAb OKT3 purified on protein A, according to standard methods from Current Protocols in Immunology, 5th Ed., Coligan et al., Edts, Wiley 2004) against the CD3 complex, a T-cell receptor and phorbolester (PMA), which non-physiologically activates intracellular signal cascades in human PBL including integrin-dependent adhesion while circumventing cytohesins.
Cells from human blood were isolated according to standard methods (Current Protocols in Immunology, 5th Ed., 2004, Coligan et al., Edts, Wiley). Cell culture dishes coated with ICAM-1 were produced by means of recombinant ICAM-1-Fc fusion protein (Kolanus, W. et al., Cell 86, 233-42 (1996), Geiger, C. et al., EMBO J., 19, 2525-2536 (2000)). 300,000 human peripheral blood cells (PBL) were stimulated for 30 minutes with 2 μg/ml of OKT3 or 40 ng/ml of phorbolester (PMA) in Hank's BSS, (Gibco; composition (g/l): CaCl2x2H2O (0.185), KCl (0.4), KH2PO4 (0.06), MgCl2x6H2O (0.1), MgSO4x7H2O (0.1), NaCl (8.0), NaHCO3 (0.35), Na2HPO4 (0.048), D-glucose (1.0)), and placed for one hour in Hank's BSS onto the ICAM-1 coated cell culture dishes, whereby the agonists were not removed. Non-bound cells were removed by washing with Hank's BSS. The percentage of bound cells was determined by counting under a microscope using a standard counting grid.

T1 sequence (P39993 570-714): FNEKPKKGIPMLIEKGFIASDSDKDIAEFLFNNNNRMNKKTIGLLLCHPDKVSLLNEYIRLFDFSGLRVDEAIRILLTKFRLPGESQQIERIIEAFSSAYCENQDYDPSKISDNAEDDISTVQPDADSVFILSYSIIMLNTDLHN

With COc1nc(-c2ccc3c(c2)OCO3)n(-c2ccc(NC(=O)CSc3ccccc3)cc2)n1 [Compound 9] the IC50 (sec7-domain of Gea2) was 64 ± 4 µM, the IC50 [1] was 7.6 ± 0.3 µM and the “specificity of inhibition of sec7-domains (cytohesins vis-à-vis Gea2)” value [2] was “specific inhibition of the sec7-domains of the cytohesins”. The IC50 [3] was 8.3 ± 0.2 µM, the IC50 (cytohesin-2) was 12 ± 0.8 µM and the CC50 at 24 h [4] was 141 ± 8 µM. The IC50 ([5]; Homo sapiens, cells stimulated with OKT3, units given within the value, read-out: IC50 of inhibition of adhesion of PBL to ICAM-1) was 0.5 to 1 µM and the “effect on adhesion of PBL to ICAM-1” value ([5]; cells activated by phorbolester (PMA)) was “not influenced”.
